Source: patent publication US10441588B2, “Methods and compositions for treating bacterial infection” (Curators of the University of Missouri, priority 2012, dated 2019)
Entries after “also recorded” stand apart in the source; their conditions may differ.

How the values were obtained:
[1] = system: group A streptococcus (GAS); test: Group A streptococcus infection in mice; format: in vivo; conditions: GAS 105-6 CFU per mouse
Method: FIGS. 1A & 1B show the identification of a chemical series of compounds inhibiting group A streptococcus virulence. FIG. 1A) Microarray analysis of gene expression changes in MGAS2221 treated with CCG-102487 compared to DMSO. FIG. 1B) Effect of CCG-2979 on mice survival after infection with GAS (105-6 CFU per mouse).
A number of small molecules that can inhibit SK expression without impeding bacterial growth were evaluated. Furthermore, these compounds can inhibit gene expression of a broad spectrum of streptococcal virulence factors (FIG. 1A).

[2] = system: S. epidermis; test: S. epidermis growth inhibition, optical density, test/control; format: cell-based, Staphylococcus epidermidis; conditions: for activity at 100 µM: Staphylococcus epidermidis, growth of bacteria test/control by optical density
[3] = system: S. epidermis biofilm; test: S. epidermis biofilm inhibition, optical density, test/control; conditions: for activity at 100 µM: Staphylococcus epidermidis, read-out: S. epidermis Biofilm inhibition 100 μM vs. (−) Control, 100 μM; for activity at 100 µM / S. epidermis Biofilm inhibition 10 μM vs. (−) Control: growth of biofilm test/control by optical density
[4] = system: S. aureus biofilm; test: S. aureus biofilm inhibition, optical density, test/control; format: cell-based, Staphylococcus aureus; conditions: for activity at 100 µM / activity at 10 µM: Staphylococcus aureus
[5] = system: S. aureus; test: S. aureus growth inhibition, optical density, test/control; format: cell-based, Staphylococcus aureus; conditions: growth of bacteria test/control by optical density; for activity at 100 µM: Staphylococcus aureus
[6] = system: S. aureus RN6390 strain biofilm; test: microbe, parasite or virus in culture; format: cell-based; conditions: for IC50: Staphylococcus aureus, read-out: IC50, inhibition of RN6390 biofilm formation
[7] = system: S. aureus Newman biofilm; test: S. aureus Newman biofilm formation in microtiter plates; format: cell-based
Method: (§1) These compounds were then tested on staphylococcus biofilm formation. […] The two compounds (CCG-203592 and CCG-205363) were tested on S. aurues strain RN6390, which is reported to be more prone to biofilm formation than Newman strain.

[8] = system: S. aurues strain RN6390; test: S. aureus RN6390 bacterial growth; format: cell-based; conditions: at 20 μM
Method: as §1

[9] = system: S. aureus virulence factor genes; test: S. aureus virulence factor gene expression, real time RT-PCR; format: cell-based; conditions: RN6390, 50 μM; ML, LL and S growth phase
[10] = system: S. aureus RN6390 strain biofilm; test: Biofilm formation on medical grade silicone sheet; format: cell-based
[11] = system: S. aureus Newman strain; test: S. aureus lung infection model in mice; conditions: intranasal S. aureus Newman, 3-4×10^8 CFU per mouse
[12] = system: E. coli flagellin (fliC); test: microbe, parasite or virus in culture; format: cell-based; conditions: Escherichia coli, 6 h; for activity at 5 µM: read-out: E. coli flagellin production, Relative Level vs. Control, 5 μM; for activity at 25 µM: read-out: E. coli flagellin production, Relative Level vs. Control, 25 μM
[13] = system: P. aeruginosa; test: P. aeruginosa wound infection in DIO mice; format: in vivo; conditions: female DIO mice, 10^8 CFU; vancomycin treatment alone
[14] = 100 μM, growth of biofilm test/control by optical density
[15] = growth of biofilm test/control by optical density

Structure (SMILES) | activity at 100 µM [2] | activity at 100 µM [4, 14] | activity at 100 µM [5] | activity at 5 µM [12] | activity at 25 µM [12] | further results
C=CCn1c(SCCCC)nc2c(c1=O)C1(CCCCC1)Cc1ccccc1-2 [CCG-2979] |  |  |  |  |  | protection of mice against group A streptococcal infection (survival) [1]: capable of protecting mice
C=CCn1c(SCc2ccc(OC)cc2)nc2c(c1=O)C1(CCCCC1)Cc1ccccc1-2 [CCG-102483] | 129% |  |  |  |  | activity at 100 µM [3]: 78.6%
C=CCn1c(NCC)nc2c(c1=O)C1(CCCCC1)Cc1ccccc1-2 [CCG-203043] |  | 43.5% | 70% |  |  | S. epidermidis bacterial growth ([2]; RP62A strain): without inhibition of bacterial growth; S. epidermis Biofilm inhibition 10 μM vs. (−) Control [3]: 0.169; S. epidermidis biofilm formation ([3]; RP62A strain, microtiter plate): strong inhibition; activity at 100 µM [3]: 45%
C=CCn1c(SCC)nc2c(c1=O)C(C)(C)Cc1cc(OC)ccc1-2 [CCG-203592] |  | 23% | 110% |  |  | IC50, inhibition of S. aureus biofilm formation [6]: low μM range; IC50 [6]: 2.42 ± 0.14 µM; S. aureus Newman biofilm formation [7]: consistent inhibition; bacteria growth [8]: without inhibiting bacteria growth; activity at 10 µM [4, 15]: 40.2%; S. aureus virulence factor gene expression [9]: down regulated; also recorded: inhibited gene expression; biofilm formation on the surface of silicone sheet [10]: decreased biofilm formation; protection of mice in S. aureus lung infection model [11]: in vivo efficacy in protecting mice
C=CCn1c(NCC)nc2c(c1=O)C(C)(C)Cc1ccccc1-2 [CCG-203804] | 103% | 10.3% | 66.2% |  |  | S. epidermis Biofilm inhibition 10 μM vs. (−) Control [3]: 0.858
COCCSc1nc(OCC2OCCO2)c2c(n1)-c1ccccc1CC2(C)C [CCG-204030, 4-((1,3-dioxolan-2-yl)methoxy)-2-((2-methoxyethyl)thio)-5,5-dimethyl-5,6-dihydrobenzo[h]-quinazoline] | 111% |  |  |  |  | S. aureus Biofilm Inhibition 100 μM vs. (−) Control [4, 14]: 0.589; Growth Inhibition 100 μM vs. (−) Control [5]: 0.919; activity at 100 µM [3]: 73.9%
COCCOCCOc1nc(SCCOC)nc2c1C(C)(C)Cc1ccccc1-2 [CCG-204033, 4-(2-(2-Methoxyethoxy)ethoxy)-2-((2-methoxyethyl)thio)-5,5-dimethyl-5,6-dihydrobenzo[h]-quinazoline] | 103% | 59.9% | 83.8% |  |  | activity at 100 µM [3]: 75.6%
C=CCSc1nc2c(c(=O)n1CC=C)C(C)(C)Cc1cc(OC)ccc1-2 [CCG-205363] |  | 44% | 95% |  |  | IC50, inhibition of S. aureus biofilm formation [6]: low μM range; IC50 [6]: 6.96 ± 0.76 µM; S. aureus Newman biofilm formation [7]: consistent inhibition; bacteria growth [8]: without inhibiting bacteria growth; activity at 10 µM [4, 15]: 63.1%; S. aureus virulence factor gene expression [9]: inhibited gene expression
COCCSc1nc(OCCCO)c2c(n1)-c1ccccc1CC2(C)C [CCG-205384, 3-((2-((2-Methoxyethyl)thio)-5,5-dimethyl-5,6-dihydrobenzo[h]quinazolin-4-yl)oxy)propan-1-ol] | 100% | 16% | 93.5% |  |  | S. epidermis Biofilm inhibition 10 μM vs. (−) Control [3]: 1.095
C=CCn1c(SCC)nc2c(c1=O)C(C)(C)Cc1cc(OCCN(CC)CC)ccc1-2 [CCG-205396, 3-Allyl-8-(2-(diethylamino)ethoxy)-2-(ethylthio)-5,5-dimethyl-5,6-dihydrobenzo[h]-quinazolin-4(3H)-one] | 13% | 6.2% |  |  |  | activity at 10 µM [4, 15]: 68.4%; activity at 100 µM [3]: 3.7%
C=CCn1c(SCC)nc2c(c1=O)C(C)(C)Cc1cc(OCCN3CCOCC3)ccc1-2 [CCG-205427] | 98% |  | 92.8% |  |  | activity at 10 µM [4, 15]: 73.4%; activity at 100 µM [3]: 76.6%
C=CCn1c(SCCOC)nc2c(c1=O)C1(CCNCC1)Cc1ccccc1-2 [CCG-205447, 3-Allyl-2-((2-methoxyethyl)thio)-3H-spiro[benzo[h]quinazoline-5,4′-piperidin]-4(6H)-one] | 104% |  | 90% |  |  | activity at 10 µM [4, 15]: 110%; S. epidermis Biofilm inhibition 10 μM vs. (−) Control [3]: 0.936
C=CCn1c(SCCOC)nc2c(c1=O)C1(CCN(C(=O)CCCC)CC1)Cc1ccccc1-2 [CCG-206227, 3-Allyl-2-((2-methoxyethyl)thio)-1′-pentanoyl-3H-spiro[benzo[h]quinazoline-5,4′-piperidin]-4(6H)-one] | 141% | 27% |  |  |  | biofilm formation by S. aureus [4]: inhibit biofilm formation; activity at 10 µM [4, 15]: 52.8%; biofilm formation by S. epidermis [3]: inhibit biofilm formation; S. epidermis Biofilm inhibition 10 μM vs. (−) Control [3]: 0.943
C=CCn1c(SCCOC)nc2c(c1=O)C(C)(C)Cc1cc(C(=O)NCCO)ccc1-2 [CCG-206239, 3-allyl-N-(2-hydroxyethyl)-2-((2-methoxyethyl)thio)-5,5-dimethyl-4-oxo-1,2,3,4,5,6-hexahydrobenzo[h]quinazoline-8-carboxamide] | 111% | 32.7% |  |  |  | 
CCSc1nc2c(c(=O)n1C)C(C)(C)Cc1ccc(OC)cc1-2 [CCG-206353] |  | 32.3% | 92.1% |  |  | activity at 10 µM [4, 15]: 49.4%; S. epidermis Biofilm inhibition 10 μM vs. (−) Control [3]: 1.053; activity at 100 µM [3]: 34.7%
COc1ccc2c(c1)CC(C)(C)c1c-2nc(SCC(F)(F)F)n(C)c1=O [IV501] |  |  |  | 36.2% | 47.5% | 
COc1ccc2c(c1)CC(C)(C)c1c-2nc(SCC(F)(F)F)[nH]c1=O [IVG-00601-00A01] |  |  |  | 85.3% | 3.96% | 
COc1ccc2c(c1)CC(C)(C)c1c(OC)nc(SCC(F)(F)F)nc1-2 [IVG-00607-00A01] |  |  |  | 63.4% | 27.5% | 
COc1ccc2c(c1)CC(C)(C)c1c-2nc(S)n(C)c1=O [IVG-00608-00A01] |  |  |  | 82.8% | 48.9% | 
COc1ccc2c(c1)CC(C)(C)c1c-2nc(NCCO)n(C)c1=O [IVG-00610-00A01] |  |  |  | 31.6% | 8.83% | 
COc1ccc2c(c1)CC(C)(C)c1c-2nc(NCC(F)(F)F)n(C)c1=O [IVG-00611-00A01] |  |  |  | 19.6% | 13.6% | 
COc1ccc2c(c1)CC(C)(C)c1c-2nc(N(C)CCO)n(C)c1=O [IVG-00612-00A01] |  |  |  | 18.1% | 12.9% | 
CCNc1nc2c(c(=O)n1C)C(C)(C)Cc1cc(OC)ccc1-2 [IVG-00613-00A01] |  |  |  | 34.2% | 13.9% | 
COc1ccc2c(c1)CC(C)(C)c1c-2nc(OCC(F)(F)F)n(C)c1=O [IVG-00614-00A01] |  |  |  | 24.4% | 26.2% | 
CN[C@H](CC(C)C)C(=O)N[C@H]1C(=O)N[C@@H](CC(N)=O)C(=O)N[C@H]2C(=O)N[C@H]3C(=O)N[C@H](C(=O)N[C@H](C(=O)O)c4cc(O)cc(O)c4-c4cc3ccc4O)[C@H](O)c3ccc(c(Cl)c3)Oc3cc2cc(c3O[C@@H]2O[C@H](CO)[C@@H](O)[C@H](O)[C@H]2O[C@H]2C[C@](C)(N)[C@H](O)[C@H](C)O2)Oc2ccc(cc2Cl)[C@H]1O [vancomycin, reference compound] |  |  |  |  |  | survival [13]: 40%
